Measurements from the METLIN SMRT retention time set (Domingo-Almenara et al. 2019).

Assay: gradient 5% acetonitrile 3 min, to 50% in 2 min, to 85% in 15 min, held 3 min, 100 µL/min
Conditions: column: Zorbax Extend-C18 2.1 x 50 mm; eluents: water / acetonitrile, 0.1% formic acid
Method in brief: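 In both positive and negative ionization mode, a quadrupole time-of-flight mass spectrometer coupled to HPLC analyzed pure standards run in mixtures of ~100 molecules. The Zorbax Extend-C18 column (2.1 × 50 mm, 1.8 μm) was operated at 100 μL/min with water and acetonitrile, each containing 0.1% formic acid. The dead volume was 40 μL and the dwell volume 900 μL. Retention time came from adduct peaks that were computationally picked and individually inspected by hand.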

| SMILES | RP-LC retention time |
| --- | --- |
| O=C(O)CCCC(=O)Nc1nc(-c2cccc3ccccc23)cs1 | 818 s |
| Fc1ccc(Nc2c(-c3ccccc3)nc3cnccn23)cc1 | 844 s |
| N#Cc1ccc(Cl)cc1NC(=O)C(=O)NCC(O)C1CCCCC1 (configuration not stated) | 825 s |
| O=C(Cc1cn(Cc2ccc(F)cc2)c2ccccc12)N1CCN(C(=O)c2ccco2)CC1 | 803 s |
| Cc1ccc(NC(=O)c2nc(C(C)C)oc2C)c(C)c1 | 1190 s |
| O=C(Nc1ccc2c(c1)CN(S(=O)(=O)c1ccccc1)CC2)NC1CCCCC1 | 901 s |
| Cc1cc2c(c(=O)n(-c3ccccc3)c(=O)n2CC(=O)Nc2ccc(F)cc2)n1C | 797 s |
| CC(C)NC(=O)N1CC(Oc2cccc(-c3nc(-c4ccccc4)no3)c2)C1 | 1010 s |
| CCN(CCCNS(=O)(=O)c1ccc2c(c1)CCCC(=O)N2)c1ccccc1 | 618 s |
| COc1ccc2c(c1)C1(CCN(C(=O)NCc3ccc(F)cc3)C1)C(=O)N2 (configuration not stated) | 697 s |
| O=C(Cc1c[nH]c2ncccc12)NC1CCN(Cc2ccccc2)CC1 | 736 s |
| COc1ccc2nc(NC3=NCN(Cc4ccccc4)CN3)nc(C)c2c1 | 746 s |
| Cn1cccc1C(=O)C(=O)Nc1cccc(Br)c1 | 1040 s |
| CCOc1ccc(NC(=O)C2CCN(c3c(C(=O)N(CC)CC)cnc4snc(C)c34)CC2)cc1 | 882 s |
| CCOC(=O)N1CCN(c2cc(-c3nc(-c4cccc(OC)c4OC)no3)c3ccccc3n2)CC1 | 1250 s |
| COc1ccc(Cl)cc1NC(=O)Cn1nc2cc(-c3ccccc3)nc(C)n2c1=O | 974 s |
| Cn1ncc2c3ccccc3n(CC(=O)NCCC3=CCCCC3)c2c1=O | 904 s |
| O=C(CCc1cccc2[nH]ccc12)Nc1ccc(N2CCOCC2)cc1 | 845 s |
| COc1ccc(S(=O)(=O)N2CCCC(C(=O)N3CCCC3)C2)cc1C (configuration not stated) | 806 s |
| CCc1nc(N2CCC(C(=O)NCc3ccc(OC)cc3OC)CC2)c2c(C)scc2n1 | 706 s |
| O=C1NC(c2ccccc2)(C(F)(F)F)SC2=NCCCN12 (configuration not stated) | 584 s |
| CC(C)CN1CCn2cc(C(=O)N3CCN(c4ccc(F)cc4)CC3)nc2C1 | 613 s |
| O=C(C1CCCN(c2nn3c(=O)c4c(nc3s2)CCCC4)C1)N1CCC2(CC1)OCCO2 (configuration not stated) | 674 s |

| SMILES | RP-LC retention time |
| --- | --- |
| O=C(c1ccccc1Cl)N1CCCC(c2nnc(-c3cccs3)o2)C1 (configuration not stated) | 775 s |
| COc1ccc(CNS(=O)(=O)c2ccc3c(c2)CCCC(=O)N3)cc1 | 699 s |
| CCc1nc2cc3c(cc2n1CC(=O)N1C(C)CCCC1C)OCCO3 (configuration not stated) | 668 s |
| O=C1c2cccc(NCCCNCCO)c2C(=O)c2cccc(NCCCNCCO)c21 | 583 s |
| O=c1n(Cc2ccccc2)nc2c(S(=O)(=O)N3CCN(c4ccc(F)cc4)CC3)cccn12 | 973 s |
| COc1ccc(Cl)cc1NC(=O)N1CCCC(c2nnc(-c3ccccc3F)s2)C1 (configuration not stated) | 1040 s |
| COc1cc(C(=O)NCC(c2cccs2)N2CCOCC2)cc(OC)c1OC (configuration not stated) | 607 s |
| Cc1cc(C)n(-c2ccc(=O)n(CCNC(=O)c3cncc(Br)c3)n2)n1 | 636 s |
| COc1cccc(-c2[nH]ncc2CN2CCC3(CCC3O)CC2)c1 (configuration not stated) | 586 s |
| CC(C)CNC(=O)c1cn(-c2ccc(-c3nc(C(C)(C)C)no3)cn2)cn1 | 1020 s |
| CCOC(=O)C1CCN(C(=O)C(C)N2C(=O)C3CCCCN3C(=O)c3ccccc32)CC1 (configuration not stated) | 745 s |
| CC(=O)N1c2ccc(S(=O)(=O)N3CCCCC3)cc2CC1C(=O)NCCc1ccc(Cl)cc1 (configuration not stated) | 924 s |
| CCS(=O)(=O)NCc1ccc2c(c1)CCN2C(=O)c1cccc(C)c1 | 815 s |
| CC(C)CCN1CCC(C2CCN(C(=O)c3ccncc3)C2)CC1 (configuration not stated) | 556 s |
| CNC(=O)[C@@H]1CN(C(=O)c2sc(C)nc2C)C[C@H]1c1n[nH]c(C)n1 | 559 s |
| Cn1cccc1C(=O)NC(C)(C)c1nc2c(c(C(N)=O)n1)OCCO2 | 608 s |
| COC(=O)c1ncoc1-c1ccccc1C(=O)N1CCCC1 | 643 s |
| Clc1ccccc1CSc1nnc(-c2ccc(Br)cc2)o1 | 1400 s |
| COc1cccc(N2CCN(C(=O)c3[nH]c(C)c(S(=O)(=O)N4CCOCC4)c3C)CC2)c1 | 772 s |
| CCC(=O)N1CCc2ccccc2C1C(=O)NCc1ccc2c(c1)OCO2 (configuration not stated) | 761 s |
| CCCCn1cc(S(=O)(=O)NCc2ccc(C)cc2)c2cccnc21 | 984 s |
| O=C(NCc1ccccc1Br)C1CCCN(c2cnc3nccnc3c2)C1 (configuration not stated) | 728 s |
| COc1ccc(-c2nc3nccc(-c4ccsc4)n3n2)c(OC)c1 | 832 s |

| SMILES | RP-LC retention time |
| --- | --- |
| CCOC(=O)CCC(=O)Nc1ccc(-c2nnc(N(C)c3ccccc3)s2)cc1 | 702 s |
| CCn1cnc(S(=O)(=O)N2CCC(C(=O)N3CCc4ccccc4C3)CC2)c1 | 729 s |
| COc1ccc(Cn2nc3ccc(S(=O)(=O)N4CCCCCC4)cn3c2=O)cc1 | 935 s |
| CCOc1ccc(-n2ccn3c(CC(C)CC(=O)NC4CCCC4)nnc3c2=O)cc1 (configuration not stated) | 710 s |
| Cc1nc(-c2nnc(NC(=O)Cn3cnc4c3c(=O)n(C)c(=O)n4C)o2)cs1 | 569 s |
| COc1cc(Cl)c(NC(=O)C(=O)c2ccc[nH]2)c(OC)c1 | 969 s |
| CCn1cc(Br)c(C(=O)Nc2ccc(C(C)=O)cc2)n1 | 829 s |
| O=c1c2cc(-c3ccc(Br)cc3)nn2cnn1Cc1nc(-c2ccccc2)no1 | 1190 s |
| CS(=O)(=O)N1CCOc2ccc(CCC(=O)NCC3CCCO3)cc2C1 (configuration not stated) | 666 s |
| CCc1noc(NC(C)=O)c1-c1ccc(C)c(S(=O)(=O)N2CCN(c3ccccn3)CC2)c1 | 665 s |
| CN1CCN(CCNC(=O)Cn2c3ccccc3c3cnn(C)c(=O)c32)CC1 | 570 s |
| O=C(NCCc1ccccn1)c1cccc(N2CCNC(c3ccccc3)C2)n1 (configuration not stated) | 554 s |
| CCc1ccc(S(=O)(=O)NCC2CCN(C(=O)Nc3ccccc3OC)CC2)s1 | 878 s |
| Cn1nc(C(=O)N2CC(c3nc(-c4cccs4)no3)C2)ccc1=O | 639 s |
| O=C(O)CCn1nnc2ccccc2c1=O | 606 s |
| CC(C)NC(=O)N(C1CC1)C1CCOC2(CCN(C(=O)Cc3ccsc3)CC2)C1 (configuration not stated) | 770 s |
| COCC(=O)NC(Cc1ccccc1)c1nnc(N2CCN(C)CC2)o1 (configuration not stated) | 585 s |
| CCNc1cc(N2CCC(CCC(=O)NCC(C)C)CC2)ncn1 | 602 s |
| Cc1ccc(C)c(N2CCN(C(=O)C3CCN(S(=O)(=O)c4cn(C)c(C)n4)CC3)CC2)c1 | 822 s |
| COc1ccc(-c2ccc3nc(N4CCC(C(=O)NC5CC5)CC4)sc3n2)cc1 | 746 s |
| CCC(C)C(NC(=O)c1ccsc1)C(=O)Nc1nc2ccccc2[nH]1 (configuration not stated) | 703 s |
